Experimental data: patent publication US10016439B2, “Fused imidazole compounds” (ONO PHARMACEUTICAL CO., LTD., priority 2014, dated 2018)

Assays:
GABAA α5/β3/γ2 [1] = molecular target: T1, GABAA α5/β3/γ2 (Homo sapiens (Human), UniProt P18507+P31644); assay: Binding assay (Scintillation Proximity Assay, [3H]-Ro15-1788); details: membranes of HEK293 cells expressing GABAA α5/β3/γ2
Protocol: The GABAAα5/β3/γ2 protein used for the Scintillation Proximity Assay was derived from membranes produced from HEK293 GABAA α5/β3/γ2 expressing HEK293 cell line. HEK293 GABAA α5/β3/γ2 expressing HEK293 cell line was cultured, then harvested and centrifuged the cells. Membranes were produced by homogenization of the cell pellet with a tissue homogenizer. The resulting homogenate was centrifuged at 48,000 g for 30 minutes, re-suspended and washed twice with 10 mM potassium phosphate buffer, pH 7.4. Final resuspension of membranes took place in buffer containing 10 mM potassium phosphate and 100 mM KCl.
For assay, test compound (50×) was added 0.5 μl per well to a white-walled clear-bottomed 384-well plate.
Full signal controls were prepared by the addition of 0.5 μl of DMSO to the appropriate wells. Mixture of 10 μl of protein and 10 μl of PVT-WGA beads (0.2 mg/well) were added to the plate. Both protein and bead were diluted to the desired concentration with 10 mM potassium phosphate, pH 7.4, containing 100 mM KCl. The plate was pre-incubated for 30 minutes at room temperature with shaking before initiation of the reaction by the addition of radioligand. 5 μl of [^3H]-Ro15-1788 was added at a concentration of 30 nM (5×) and the plates sealed. The reaction mix was incubated at room temperature overnight with gentle agitation on a plate shaker. The final DMSO concentration for all phases of the screening was 2% (v/v). At the end of the overnight incubation, the plates were centrifuged for two minutes at 1,000 rpm prior to reading on a Perkin Elmer Microbeta.
Concentration-response testing was performed in duplicate and the percent effect calculated for each replicate data point. The raw data was entered in Activity Base and the curves were fitted to the mean data using Excel and XL Fit, and shown as Ki.

GABAA α5/β3/γ2 [2] = molecular target: T1, GABAA α5/β3/γ2; assay: Functional assay (PatchXpress automated patch-clamp), α5 subtype; format: cell-based; details: % change of GABA EC20 response; compound 1 μM; HEK293 cells
From the text: (§1) GABAA α5/β3/γ2 HEK293 cell line was used throughout the functional assay in PatchXpress (Molecular Devices), the automated patch-clamp system. Cells stably expressing the appropriate GABAA subtype (α5/β3/γ2, α1/β3/γ2, α2/β3/γ2 or α3/β3/γ2) were dissociated from poly-D-lysine treated tissue culture flasks using a mixture of one part TrypLE (Invitrogen, cat #12604): one part Dulbecco's Phosphate Buffered Saline (Invitrogen, cat #14190). The dissociated cells were re-suspended in growth media (D-MEM/F-12 media (Invitrogen, cat #11320) supplemented with 10% (v/v) Foetal Bovine Serum (Invitrogen, cat #10082) and 1% (v/v) non-essential amino acids (Invitrogen, cat #11140)) and allowed to recover for one hour at 37° C. in a humidified incubator with 5% CO2. At the end of the recovery period cells were centrifuged at 1,000 rpm for two minutes and the resulting pellet re-suspended in external solution (in mM; 137 NaCl, 4 KCl, 10 HEPES, 1.8 CaCl2, 1 MgCl2, 10 glucose, pH set to 7.35 with NaOH). Cells were counted and diluted to 2.5×10^6/ml in external solution. The patch-clamp assay protocol involved determination of current amplitude with control applications of GABA EC20 containing concentration-matched DMSO (0.3% v/v), then pre-incubation of the test compound for one minute prior to the addition of the same compound diluted with the GABA EC20. Compound and/or GABA was applied for five seconds, with two minute wash periods between applications. No wash period was present at the end of the compound pre-application stage. The internal solution comprised (in mM) 90 KCl, 50 KF, 11 EGTA, 10 HEPES, 1 MgCl2, 2 Mg-ATP, the pH was set to 7.35 with KOH and the holding potential was −60 mV. Compounds were assayed at a concentration of 1 μM.

GABAA α1/β3/γ2 = GABAA α1/β3/γ2 (Homo sapiens (Human), UniProt P14867+P18507); assay: Functional assay (PatchXpress automated patch-clamp), α1 subtype; format: cell-based; details: % change of GABA EC20 response; compound 1 μM; HEK293 cells
From the text: as §1

Lister Hooded rat = assay: Rat Novel Object Recognition test; format: in vivo; details: 20 mg/kg p.o., 30 min prior to T1 and T2; 24 hr delay
From the text: NOR (Novel Object Recognition test) is a two-trial spontaneous test of visual recognition memory that relies on the animal's natural tendency to explore novelty (Behav Brain Res, 1998, 31(1): pp. 47-59). Variation of the inter-trial interval (ITI) between acquisition (T1) and retention trials (T2) may be used to investigate either deficits or improvements in memory. A temporal performance deficit can be induced by increasing the ITI (approximately 24 hr), such that exploration of both objects in T2 is similar, enabling the pro-cognitive abilities of novel compounds to be evaluated.
Male, Lister Hooded rat (228-273 g at start of study; Harlan UK) was used.
Habituation to the grey, matt perspex NOR box twice a day, on two consecutive days, prior to testing. Each habituation session, consisted of a 3 min exposure to the empty test box (46×30×45 cm), followed by 1 min in the side annex (13×30×45 cm), and then a further 3 min in the test area. […]
Experimental protocol tests for improvement in attention/recognition memory via reversal of a 24 h delay-induced deficit in NOR. […] All performance measures were determined for each individual animal before statistical handling.
The T1 score, d1 and d2 index were analysed using 2-way ANOVA (treatment×object) followed by planned comparisons post-hoc LSD using single measure parametric analysis, based on least square (predicted) means in InVivoStat, UK.

T1 sequence (P31644 32-462): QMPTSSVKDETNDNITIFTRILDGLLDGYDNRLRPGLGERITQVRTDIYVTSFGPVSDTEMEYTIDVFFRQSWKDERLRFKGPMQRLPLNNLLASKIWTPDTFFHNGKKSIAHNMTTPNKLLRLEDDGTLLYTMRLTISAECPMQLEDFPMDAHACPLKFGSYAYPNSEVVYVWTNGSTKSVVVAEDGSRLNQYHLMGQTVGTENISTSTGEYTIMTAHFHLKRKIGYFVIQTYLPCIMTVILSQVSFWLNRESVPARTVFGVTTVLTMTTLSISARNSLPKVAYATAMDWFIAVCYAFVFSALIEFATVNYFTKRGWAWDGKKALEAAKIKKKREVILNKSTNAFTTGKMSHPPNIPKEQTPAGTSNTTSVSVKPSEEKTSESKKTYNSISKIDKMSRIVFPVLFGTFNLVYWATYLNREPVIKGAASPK
T1 sequence (P28472 26-473 partner): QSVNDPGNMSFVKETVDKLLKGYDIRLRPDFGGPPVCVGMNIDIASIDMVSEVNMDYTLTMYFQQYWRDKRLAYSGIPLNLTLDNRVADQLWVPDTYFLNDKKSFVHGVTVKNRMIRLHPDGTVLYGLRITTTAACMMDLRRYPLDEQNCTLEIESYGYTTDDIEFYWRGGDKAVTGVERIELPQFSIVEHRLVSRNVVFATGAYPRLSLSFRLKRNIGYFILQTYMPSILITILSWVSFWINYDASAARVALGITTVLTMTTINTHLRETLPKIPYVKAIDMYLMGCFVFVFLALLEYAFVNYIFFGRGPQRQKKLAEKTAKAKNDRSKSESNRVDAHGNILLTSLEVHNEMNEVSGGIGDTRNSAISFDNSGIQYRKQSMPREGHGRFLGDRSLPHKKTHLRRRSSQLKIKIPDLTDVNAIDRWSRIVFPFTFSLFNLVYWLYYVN
T1 sequence (P18507 40-475): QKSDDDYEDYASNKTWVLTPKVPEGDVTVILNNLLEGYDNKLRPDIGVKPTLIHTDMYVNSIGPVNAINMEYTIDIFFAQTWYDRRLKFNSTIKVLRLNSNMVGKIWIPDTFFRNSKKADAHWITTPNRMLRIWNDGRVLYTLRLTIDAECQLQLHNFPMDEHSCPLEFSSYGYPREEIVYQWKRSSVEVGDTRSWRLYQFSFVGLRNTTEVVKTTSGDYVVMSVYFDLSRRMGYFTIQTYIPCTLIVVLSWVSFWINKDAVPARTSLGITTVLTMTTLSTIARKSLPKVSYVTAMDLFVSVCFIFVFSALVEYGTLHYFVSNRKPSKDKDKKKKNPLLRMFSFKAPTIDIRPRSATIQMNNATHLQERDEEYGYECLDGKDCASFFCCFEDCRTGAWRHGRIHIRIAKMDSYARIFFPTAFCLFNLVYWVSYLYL
Sequence of GABAA α1/β3/γ2 (P14867 28-456): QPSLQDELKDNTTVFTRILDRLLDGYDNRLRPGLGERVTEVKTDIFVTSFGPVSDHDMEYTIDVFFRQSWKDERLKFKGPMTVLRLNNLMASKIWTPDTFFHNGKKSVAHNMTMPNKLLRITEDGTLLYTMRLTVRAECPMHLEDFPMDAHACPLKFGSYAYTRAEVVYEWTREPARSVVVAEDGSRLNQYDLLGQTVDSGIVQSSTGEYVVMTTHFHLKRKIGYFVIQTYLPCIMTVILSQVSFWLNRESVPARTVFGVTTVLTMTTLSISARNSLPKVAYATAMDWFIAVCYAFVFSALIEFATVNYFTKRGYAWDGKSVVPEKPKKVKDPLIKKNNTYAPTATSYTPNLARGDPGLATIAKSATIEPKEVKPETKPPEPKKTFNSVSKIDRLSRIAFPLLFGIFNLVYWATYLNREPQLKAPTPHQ
Sequence of GABAA α1/β3/γ2 (P28472 26-473 partner): as the sequence (P28472 26-473 partner) above
Sequence of GABAA α1/β3/γ2 (P18507 40-475): as the sequence (P18507 40-475) above

Cc1cc(Nc2cc3c(cc2Cl)N(C)C(=O)CO3)nc2c1ncn2CC1CC1 [Example 160, 6-Chloro-7-((3-(cyclopropylmethyl)-7-methyl-3H-imidazo[4,5-b]pyridin-5-yl)amino)-4-methyl-2H-benzo[b][1,4]oxazin-3(4H)-one]
Ki (GABAA α5/β3/γ2 [1]): 0.9 nM
inhibition at 1 µM (GABAA α5/β3/γ2 [2]): 42.5%
inhibition at 1 µM (GABAA α1/β3/γ2): 9.8%
d2 index score (performance in NOR) (Lister Hooded rat): significantly improved performance
